Test results taken from patent US11752188B2, “Compositions and methods for nutritional supplements” (DailyColors Health Inc., priority 2020, dated 2023).
Read-outs that look alike come from different tables or passages of the source.

Legend:
Type in all cases: biochemical
[1] = biological target: recombinant human JAK2 (Homo sapiens, UniProt O60674); assay: JAK2 Kinase-Glo Plus luminescence kinase assay
[2] = biological target: recombinant human JAK1 (Homo sapiens, UniProt P23458); assay: JAK1 Kinase-Glo Plus luminescence kinase assay
[3] = biological target: T1, recombinant human JAK3 (Homo sapiens, UniProt P52333); assay: JAK3 Kinase-Glo Plus luminescence kinase assay
T1 sequence (P52333 1-1124): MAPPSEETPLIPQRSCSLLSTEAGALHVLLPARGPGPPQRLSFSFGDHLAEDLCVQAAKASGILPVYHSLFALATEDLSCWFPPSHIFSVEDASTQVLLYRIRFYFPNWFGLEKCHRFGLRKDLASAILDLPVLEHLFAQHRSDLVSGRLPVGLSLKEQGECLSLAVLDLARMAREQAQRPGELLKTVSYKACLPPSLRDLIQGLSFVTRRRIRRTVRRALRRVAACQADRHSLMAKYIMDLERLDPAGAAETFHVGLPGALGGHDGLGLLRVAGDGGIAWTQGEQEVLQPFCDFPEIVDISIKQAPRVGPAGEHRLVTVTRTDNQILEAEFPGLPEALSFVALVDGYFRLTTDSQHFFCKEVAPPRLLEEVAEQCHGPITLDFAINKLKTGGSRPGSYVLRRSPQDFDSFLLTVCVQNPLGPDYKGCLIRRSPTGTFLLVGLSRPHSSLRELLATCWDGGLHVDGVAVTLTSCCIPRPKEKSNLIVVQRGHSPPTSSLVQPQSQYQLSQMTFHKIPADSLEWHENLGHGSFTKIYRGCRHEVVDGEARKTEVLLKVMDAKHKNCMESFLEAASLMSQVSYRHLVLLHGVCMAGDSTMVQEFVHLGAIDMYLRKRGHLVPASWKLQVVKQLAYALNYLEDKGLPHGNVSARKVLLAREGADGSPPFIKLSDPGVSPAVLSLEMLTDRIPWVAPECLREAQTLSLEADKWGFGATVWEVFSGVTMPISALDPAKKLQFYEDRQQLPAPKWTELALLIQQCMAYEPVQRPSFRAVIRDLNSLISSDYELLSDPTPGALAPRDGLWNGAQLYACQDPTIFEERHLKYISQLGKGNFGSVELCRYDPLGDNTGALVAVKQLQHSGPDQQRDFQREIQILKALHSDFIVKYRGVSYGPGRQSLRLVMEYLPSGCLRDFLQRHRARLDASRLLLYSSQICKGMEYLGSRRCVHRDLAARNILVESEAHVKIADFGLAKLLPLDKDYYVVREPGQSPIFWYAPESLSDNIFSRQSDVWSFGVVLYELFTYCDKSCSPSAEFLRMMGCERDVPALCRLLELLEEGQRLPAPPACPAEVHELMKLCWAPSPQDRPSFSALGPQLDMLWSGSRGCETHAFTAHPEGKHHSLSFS

recombinant human JAK1, sequence (P23458 whole entry): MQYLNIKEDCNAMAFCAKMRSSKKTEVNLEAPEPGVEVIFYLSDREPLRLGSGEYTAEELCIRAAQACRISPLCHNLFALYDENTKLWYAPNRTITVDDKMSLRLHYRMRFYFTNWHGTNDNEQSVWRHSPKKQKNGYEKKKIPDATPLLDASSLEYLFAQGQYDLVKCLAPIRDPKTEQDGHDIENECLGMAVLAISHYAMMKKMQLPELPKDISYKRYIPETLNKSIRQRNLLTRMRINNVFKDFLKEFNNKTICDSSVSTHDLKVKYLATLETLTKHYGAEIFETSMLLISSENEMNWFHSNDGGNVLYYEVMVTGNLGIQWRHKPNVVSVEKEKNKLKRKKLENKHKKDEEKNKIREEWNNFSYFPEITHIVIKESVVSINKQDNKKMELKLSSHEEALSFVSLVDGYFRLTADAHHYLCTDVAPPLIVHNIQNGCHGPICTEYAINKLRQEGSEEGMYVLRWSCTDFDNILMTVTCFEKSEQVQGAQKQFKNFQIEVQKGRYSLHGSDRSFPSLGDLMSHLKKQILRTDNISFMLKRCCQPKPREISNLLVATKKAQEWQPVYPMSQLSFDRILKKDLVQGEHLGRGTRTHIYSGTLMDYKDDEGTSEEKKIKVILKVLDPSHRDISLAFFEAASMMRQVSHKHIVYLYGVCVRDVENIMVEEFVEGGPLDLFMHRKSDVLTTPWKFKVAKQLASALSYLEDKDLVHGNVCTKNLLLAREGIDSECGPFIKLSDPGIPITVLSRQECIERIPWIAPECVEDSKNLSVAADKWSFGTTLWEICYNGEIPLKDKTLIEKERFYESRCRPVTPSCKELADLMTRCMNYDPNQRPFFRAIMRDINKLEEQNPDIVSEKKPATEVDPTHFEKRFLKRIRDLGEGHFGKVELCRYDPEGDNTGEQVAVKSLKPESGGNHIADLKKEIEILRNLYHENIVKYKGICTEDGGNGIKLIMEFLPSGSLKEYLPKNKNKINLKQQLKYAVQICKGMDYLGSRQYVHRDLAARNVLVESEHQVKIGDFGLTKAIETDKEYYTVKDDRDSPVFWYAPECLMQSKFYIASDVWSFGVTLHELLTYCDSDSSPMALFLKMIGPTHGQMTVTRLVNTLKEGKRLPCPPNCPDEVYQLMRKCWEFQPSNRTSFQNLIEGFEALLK
recombinant human JAK2, sequence (O60674 whole entry): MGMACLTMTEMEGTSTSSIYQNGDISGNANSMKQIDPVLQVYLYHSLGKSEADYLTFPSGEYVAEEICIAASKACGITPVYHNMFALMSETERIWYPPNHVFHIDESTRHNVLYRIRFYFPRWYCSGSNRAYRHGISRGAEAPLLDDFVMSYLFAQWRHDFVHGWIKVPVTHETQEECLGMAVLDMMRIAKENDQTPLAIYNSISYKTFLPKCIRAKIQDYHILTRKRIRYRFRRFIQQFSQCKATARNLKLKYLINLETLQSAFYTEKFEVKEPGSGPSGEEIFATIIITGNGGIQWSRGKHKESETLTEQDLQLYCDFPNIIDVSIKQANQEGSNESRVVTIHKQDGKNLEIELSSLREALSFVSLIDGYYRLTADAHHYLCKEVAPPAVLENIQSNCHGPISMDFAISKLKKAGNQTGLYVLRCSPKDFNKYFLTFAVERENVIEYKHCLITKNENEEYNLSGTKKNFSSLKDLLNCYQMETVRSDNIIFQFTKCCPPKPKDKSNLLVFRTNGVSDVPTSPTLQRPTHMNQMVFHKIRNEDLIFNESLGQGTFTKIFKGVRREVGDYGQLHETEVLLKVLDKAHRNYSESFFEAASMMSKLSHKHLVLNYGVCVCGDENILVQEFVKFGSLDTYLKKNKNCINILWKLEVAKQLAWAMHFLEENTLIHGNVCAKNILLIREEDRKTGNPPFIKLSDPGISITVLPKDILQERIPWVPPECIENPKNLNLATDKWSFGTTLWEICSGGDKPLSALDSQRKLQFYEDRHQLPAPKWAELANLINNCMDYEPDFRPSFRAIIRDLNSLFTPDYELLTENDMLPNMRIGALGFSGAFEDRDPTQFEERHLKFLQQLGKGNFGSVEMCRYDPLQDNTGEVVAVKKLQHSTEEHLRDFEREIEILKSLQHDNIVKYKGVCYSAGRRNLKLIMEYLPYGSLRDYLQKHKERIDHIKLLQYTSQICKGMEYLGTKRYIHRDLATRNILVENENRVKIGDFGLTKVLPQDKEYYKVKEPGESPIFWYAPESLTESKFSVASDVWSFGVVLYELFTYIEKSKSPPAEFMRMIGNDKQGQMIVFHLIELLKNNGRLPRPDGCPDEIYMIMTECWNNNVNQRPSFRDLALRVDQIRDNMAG

In the case of CN[C@@H]1C[C@H]2O[C@@](C)([C@@H]1OC)n1c3ccccc3c3c4c(c5c6ccccc6n2c5c31)C(=O)NC4 [Staurosporine], the “Kinase Activity Luminescence Repeat1” value ([1]; 0.001 μM, TABLE 69) is reported as 19100, the “Kinase Activity Luminescence Repeat2” value ([1]; 0.001 μM, TABLE 69) is reported as 20922 and the inhibition at 0.001 µM ([1]; 0.001 μM, TABLE 69) is reported as 0%. The activity at 0.001 µM ([1]; 0.001 μM, TABLE 69, read-out: % Activity Repeat1) was 105%, the activity at 0.001 µM ([1]; 0.001 μM, TABLE 69, read-out: % Activity Repeat2) was 96% and the “Kinase Activity Luminescence Repeat1” value ([1]; 1 nM, TABLE 72) was 9482. The “Kinase Activity Luminescence Repeat2” value ([1]; 1 nM, TABLE 72) was 10430, the activity at 0.001 µM ([1]; 1 nM, TABLE 72, read-out: % Activity Repeat1) was 89% and the activity at 0.001 µM ([1]; 1 nM, TABLE 72, read-out: % Activity Repeat2) was 86%. For the same compound, the “Kinase Activity Luminescence Repeat1” value ([1]; 0.01 μM, TABLE 69) was 36988, the “Kinase Activity Luminescence Repeat2” value ([1]; 0.01 μM, TABLE 69) was 36554 and the activity at 0.01 µM ([1]; 0.01 μM, TABLE 69, read-out: % Activity Repeat1) was 16%. The activity at 0.01 µM ([1]; 0.01 μM, TABLE 69, read-out: % Activity Repeat2) was 18%, the inhibition at 0.01 µM ([1]; 0.01 μM, TABLE 69, read-out: % Inhibition) was 83% and the “Kinase Activity Luminescence Repeat1” value ([1]; 10 nM, TABLE 72) was 17529. The “Kinase Activity Luminescence Repeat2” value ([1]; 10 nM, TABLE 72) was 16180, the activity at 0.01 µM ([1]; 10 nM, TABLE 72, read-out: % Activity Repeat1) was 65% and the activity at 0.01 µM ([1]; 10 nM, TABLE 72, read-out: % Activity Repeat2) was 69%. For the same compound, the inhibition at 0.01 µM ([1]; 10 nM, TABLE 74 summary, read-out: % Inhibition JAK2) was 33%, the “Kinase Activity Luminescence Repeat1” value ([1]; 0.1 μM, TABLE 69) was 42700 and the “Kinase Activity Luminescence Repeat2” value ([1]; 0.1 μM, TABLE 69) was 40639. The inhibition at 0.1 µM ([1]; 0.1 μM, TABLE 69) was 100%, the activity at 0.1 µM ([1]; 0.1 μM, TABLE 69, read-out: % Activity Repeat1) was 0% and the activity at 0.1 µM ([1]; 0.1 μM, TABLE 69, read-out: % Activity Repeat2) was 0%. For the same compound, the “Kinase Activity Luminescence Repeat1” value ([1]; 100 nM, TABLE 72) was 34660, the “Kinase Activity Luminescence Repeat2” value ([1]; 100 nM, TABLE 72) was 34762 and the inhibition at 0.001 µM [2] was 7%. The inhibition at 0.01 µM [2] was 72%, the “Kinase Activity Luminescence Repeat1” value ([2]; 0.001 μM, TABLE 68) was 25176 and the “Kinase Activity Luminescence Repeat2” value ([2]; 0.001 μM, TABLE 68) was 27054. The “Kinase Activity Luminescence Repeat1” value ([2]; 1 nM, TABLE 71) was 21164, the “Kinase Activity Luminescence Repeat2” value ([2]; 1 nM, TABLE 71) was 24810 and the “Kinase Activity Luminescence Repeat1” value ([2]; 0.01 μM, TABLE 68) was 37642. The “Kinase Activity Luminescence Repeat2” value ([2]; 0.01 μM, TABLE 68) was 35358, the “Kinase Activity Luminescence Repeat1” value ([2]; 10 nM, TABLE 71) was 28640 and the “Kinase Activity Luminescence Repeat2” value ([2]; 10 nM, TABLE 71) was 32000. The “Kinase Activity Luminescence Repeat1” value ([2]; 0.1 μM, TABLE 68) was 40161, the “Kinase Activity Luminescence Repeat2” value ([2]; 0.1 μM, TABLE 68) was 40781 and the “Kinase Activity Luminescence Repeat1” value ([2]; 100 nM, TABLE 71) was 36908. The “Kinase Activity Luminescence Repeat2” value ([2]; 100 nM, TABLE 71) was 39509, the activity at 0.001 µM ([2]; read-out: % Activity Repeat1, 0.001 μM, TABLE 68) was 99% and the activity at 0.001 µM ([2]; read-out: % Activity Repeat1, 1 nM, TABLE 71) was 88%. For the same compound, the activity at 0.01 µM ([2]; read-out: % Activity Repeat1, 10 nM, TABLE 71) was 52%, the activity at 0.1 µM ([2]; read-out: % Activity Repeat1, 0.1 μM, TABLE 68) was 5% and the activity at 0.1 µM ([2]; read-out: % Activity Repeat1, 100 nM, TABLE 71) was 11%. It also gave an activity at 0.001 µM ([2]; read-out: % Activity Repeat2, 0.001 μM, TABLE 68) of 87%, an activity at 0.001 µM ([2]; read-out: % Activity Repeat2, 1 nM, TABLE 71) of 70% and an activity at 0.1 µM ([2]; read-out: % Activity Repeat2, 0.1 μM, TABLE 68) of 1%. It also gave an activity at 0.1 µM ([2]; read-out: % Activity Repeat2, 100 nM, TABLE 71) of 0%, an inhibition at 0.01 µM ([2]; read-out: % Inhibition JAK1) of 56% and an inhibition at 0.1 µM ([2]; read-out: % Inhibition JAK1) of 94%. For the same compound, the inhibition at 0.001 µM [3] was 19%, the inhibition at 0.01 µM [3] was 65% and the inhibition at 0.1 µM [3] was 100%. For the same compound, the “Kinase Activity Luminescence Repeat1” value ([3]; 0.001 μM, TABLE 70) was 23814, the “Kinase Activity Luminescence Repeat2” value ([3]; 0.001 μM, TABLE 70) was 23348 and the “Kinase Activity Luminescence Repeat1” value ([3]; 1 nM, TABLE 73) was 21050. The “Kinase Activity Luminescence Repeat2” value ([3]; 1 nM, TABLE 73) was 24827, the “Kinase Activity Luminescence Repeat1” value ([3]; 0.01 μM, TABLE 70) was 32137 and the “Kinase Activity Luminescence Repeat2” value ([3]; 0.01 μM, TABLE 70) was 32417. The “Kinase Activity Luminescence Repeat1” value ([3]; 10 nM, TABLE 73) was 32876, the “Kinase Activity Luminescence Repeat2” value ([3]; 10 nM, TABLE 73) was 34538 and the “Kinase Activity Luminescence Repeat1” value ([3]; 0.1 μM, TABLE 70) was 39970. The “Kinase Activity Luminescence Repeat2” value ([3]; 0.1 μM, TABLE 70) was 40121, the “Kinase Activity Luminescence Repeat1” value ([3]; 100 nM, TABLE 73) was 37496 and the “Kinase Activity Luminescence Repeat2” value ([3]; 100 nM, TABLE 73) was 39233. For the same compound, the activity at 0.001 µM ([3]; read-out: % Activity Repeat1, 0.001 μM, TABLE 70) was 80%, the activity at 0.001 µM ([3]; read-out: % Activity Repeat1, 1 nM, TABLE 73) was 84% and the activity at 0.01 µM ([3]; read-out: % Activity Repeat1, 10 nM, TABLE 73) was 27%. For the same compound, the activity at 0.1 µM ([3]; read-out: % Activity Repeat1, 0.1 μM, TABLE 70) was 0%, the activity at 0.1 µM ([3]; read-out: % Activity Repeat1, 100 nM, TABLE 73) was 5% and the activity at 0.001 µM ([3]; read-out: % Activity Repeat2, 0.001 μM, TABLE 70) was 82%. It also gave an activity at 0.001 µM ([3]; read-out: % Activity Repeat2, 1 nM, TABLE 73) of 66%, an activity at 0.01 µM ([3]; read-out: % Activity Repeat2, 0.01 μM, TABLE 70) of 35% and an activity at 0.01 µM ([3]; read-out: % Activity Repeat2, 10 nM, TABLE 73) of 20%. For the same compound, the activity at 0.1 µM ([3]; read-out: % Activity Repeat2, 0.1 μM, TABLE 70) was 0%, the activity at 0.1 µM ([3]; read-out: % Activity Repeat2, 100 nM, TABLE 73) was 0% and the inhibition at 0.001 µM ([3]; read-out: % Inhibition JAK3) was 25%. It also gave an inhibition at 0.01 µM ([3]; read-out: % Inhibition JAK3) of 77% and an inhibition at 0.1 µM ([3]; read-out: % Inhibition JAK3) of 97%.
